Assay results taken from ChEMBL document CHEMBL1141429, “Ecdysteroids from the Antarctic tunicate Synoicum adareanum” (J Nat Prod, 2007).

Assays:
HCT-116 = assay: Cytotoxicity against human HCT116 cells after 3 days by disk diffusion assay; assay type: functional, cell-based; conditions: for IC50: HCT-116, 72 h
L1210 = assay: Cytotoxicity against […] cells after 3 days by disk diffusion assay; assay type: functional, cell-based
H125M = assay: Cytotoxicity against human H125M cells after 3 days by disk diffusion assay; assay type: functional, cell-based
[1] = Cytotoxicity against human CFU-GM cells after 3 days by disk diffusion assay; assay type: cell-based; conditions: 72 h
CCRF-CEM = assay: Cytotoxicity against human CCRF-CEM cells after 3 days by disk diffusion assay; assay type: functional, cell-based

Structure (SMILES)	IC50 (HCT-116) [µM]	Activity (L1210)	Activity (H125M)	Activity [1]	Activity (CCRF-CEM)	Activity (HCT-116)
C[C@H](CCCC(C)(C)O)[C@H]1CC[C@@]2(O)C3=CC(=O)C4=C[C@H](O)[C@H](O)C[C@]4(C)[C@@]3(O)CC[C@]12C [HYOUSTERONE C]	3.7					
C[C@H](CCC(C)(C)O)[C@H]1CCC(=O)[C@]23CC(=O)C4=C[C@H](O)[C@H](O)C[C@]4(C)[C@H]2CC[C@]13C [ABEOHYOUSTERONE]	3					
C[C@H](CCCC(C)(C)O)[C@H]1CC[C@]2(O)C3=CC(=O)C4=C[C@H](O)[C@H](O)C[C@]4(C)[C@@]3(O)CC[C@]12C [HYOUSTERONE D]		Not toxic	Not toxic	Non-toxic	Not toxic	Not toxic
C[C@H](CCCC(C)(C)O)[C@H]1CC[C@H]2C3=CC(=O)C4=C[C@H](O)[C@H](O)C[C@]4(C)[C@H]3CC[C@]12C [DIAULUSTEROL B]		Not toxic	Not toxic	Non-toxic	Not toxic	Not toxic
C[C@H](CCCC(C)(C)O)[C@H]1CC[C@@]2(O)C3=CC(=O)C4=C[C@H](O)[C@H](O)C[C@]4(C)[C@H]3CC[C@]12C [HYOUSTERONE A]	10.7					
C[C@H](CCCC(C)(C)O)[C@H]1CC[C@]2(O)C3=CC(=O)C4=C[C@H](O)[C@H](O)C[C@]4(C)[C@H]3CC[C@]12C [HYOUSTERONE B]		Not toxic	Not toxic	Non-toxic	Not toxic	Not toxic
